{
  "source": "paper PMC3578121",
  "about": "(Journal of molecular biology, 2012)",
  "key": {"[1]": {"target": "VCCβ-prism (isolated β-prism domain of Vibrio cholerae cytolysin) (Vibrio cholerae serotype O1, UniProt P09545)", "sequence (P09545 611-741 limits assumed)": "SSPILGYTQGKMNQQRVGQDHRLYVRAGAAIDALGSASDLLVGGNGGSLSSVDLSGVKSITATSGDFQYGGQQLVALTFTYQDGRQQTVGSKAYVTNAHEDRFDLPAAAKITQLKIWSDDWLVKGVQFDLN", "test": "biochemical", "format": "binding"}, "D617K mutant of VCC": {"system": "D617K mutant of VCC", "format": "binding, Vibrio cholerae"}, "[2]": {"system": "rabbit whole blood lysis by wild-type VCC"}, "VCCβ-prism": {"target": "VCCβ-prism (Vibrio cholerae serotype O1, UniProt P09545)", "sequence (P09545 611-741 limits assumed)": "as above", "format": "binding"}, "VCC": {"system": "VCC", "settings": "cited from earlier work"}, "VCCWT": {"system": "VCCWT", "format": "binding, Vibrio cholerae"}},
  "note": "Where “and” joins values, the source holds several entries; their conditions need not be identical. Identical values can stand only once. Like-named read-outs stand apart in the source and are kept apart here.",
  "data": [
    {"molecule": "OC[C@H]1O[C@H](O[C@H]2[C@H](O)[C@@H](O)C(O)O[C@@H]2CO)[C@H](O)[C@@H](O)[C@@H]1O", "note": "(mixture of isomers) [Maltose, glucose-α1,4-glucose]", "values": [
      {"measurement": "KD of maltose relative to KD of Me-α-mannose", "setting": "[1]", "value": 10, "unit": "fold"},
      {"measurement": "Kd", "setting": "[1]", "value": "30.9 ± 3.17", "unit": "mM"},
      {"measurement": "ΔG", "setting": "[1]", "value": -2.09, "unit": "kcal/mol"}
    ]},
    {"molecule": "C[C@H](O)[C@@H](O)[C@@H](O)[C@H](O)C=O", "note": "[Fucose, L-fucose]", "values": [
      {"measurement": "Binding detected by ITC", "setting": "[1]", "value": "did not exhibit measurable binding"}
    ]},
    {"molecule": "OC[C@H]1OC(O)[C@H](O)[C@@H](O)[C@@H]1O", "note": "(stereo partly drawn) [Glucose]", "values": [
      {"measurement": "Kd", "setting": "[1]", "value": "12 ± 0.6", "unit": "mM"},
      {"measurement": "ΔG", "setting": "[1]", "value": -2.679, "unit": "kcal/mol"}
    ]},
    {"molecule": "OC[C@H]1OC(O)[C@@H](O)[C@@H](O)[C@@H]1O", "note": "(stereo partly drawn) [Mannose, D-mannose]", "values": [
      {"measurement": "Kd", "setting": "[1]", "value": "14.8 ± 1.18", "unit": "mM"},
      {"measurement": "ΔG", "setting": "[1]", "value": -2.456, "unit": "kcal/mol"}
    ]},
    {"molecule": "CO[C@H]1O[C@H](CO)[C@H](O)[C@H](O)[C@H]1O", "note": "[Me-α-Galactose, Me-α-D-galactose]", "values": [
      {"measurement": "Binding detected by ITC", "setting": "[1]", "value": "did not bind"}
    ]},
    {"molecule": "COC1OC(CO)C(O)C(O)C1O", "note": "[Me-α-Glucose, Me-α-D-glucose]", "values": [
      {"measurement": "Kd", "setting": "[1]", "value": "7.1 mM and 7.09 mM"},
      {"measurement": "ΔG", "setting": "[1]", "value": -2.944, "unit": "kcal/mol"}
    ]},
    {"molecule": "COC1OC(CO)C(O)C(O)C1O", "note": "(stereo not drawn) [Me-α-Mannose, methyl-α-mannose]", "values": [
      {"measurement": "Increase in affinity of Me-α-D-mannose over D-mannose", "setting": "[1]", "value": "roughly five-fold increase"},
      {"measurement": "Kd", "setting": "[1]", "value": "3.24 ± 0.1", "unit": "mM"},
      {"measurement": "ΔG", "setting": "[1]", "value": -3.424, "unit": "kcal/mol"},
      {"measurement": "Binding detected by ITC", "setting": "D617K mutant of VCC", "value": "could not detect measurable binding"},
      {"measurement": "Effect on half-life (t1/2) of rabbit blood hemolysis by VCC", "setting": "[2]", "value": "no effect"}
    ]},
    {"molecule": "CO[C@@H]1O[C@H](CO)[C@@H](O)[C@H](O)[C@@H]1O", "note": "[Me-β-D-mannose]", "values": [
      {"measurement": "Binding detected by ITC", "setting": "[1]", "value": "loss of binding"}
    ]},
    {"molecule": "COC1OC(CO)C(O)C(O)C1O", "note": "[Me-β-Galactose, Me-β-D-galactose]", "values": [
      {"measurement": "Binding detected by ITC", "setting": "[1]", "value": "did not bind"}
    ]},
    {"molecule": "COC1OC(CO)C(O)C(O)C1O", "note": "[Me-β-Glucose, Me-β-D-glucose]", "values": [
      {"measurement": "Binding detected by ITC", "setting": "[1]", "value": "did not bind"}
    ]},
    {"molecule": "CC(=O)N[C@@H]1[C@@H](O)[C@H](O)[C@@H](CO)O[C@H]1O", "note": "[N-acetylglucosamine, N-acetyl-D-glucosamine]", "values": [
      {"measurement": "Binding detected by ITC", "setting": "[1]", "value": "did not exhibit measurable binding"}
    ]},
    {"molecule": "O=C[C@H](O)[C@@H](O)[C@H](O[C@@H]1O[C@H](CO)[C@@H](O)[C@H](O)[C@H]1O)[C@H](O)CO", "note": "[cellobiose, glucose-β1,4-glucose]", "values": [
      {"measurement": "Binding detected by ITC", "setting": "[1]", "value": "did not bind"}
    ]},
    {"molecule": "GlcNAcβ1-2Manα1-6(GlcNAcβ1-2Manα1-3)Manβ1-4GlcNAcβ1-4GlcNAc [NGA2]", "values": [
      {"measurement": "association rate ka", "setting": "VCCβ-prism", "value": "37,000 M^−1s^−1"},
      {"measurement": "dissociation rate kd", "setting": "VCCβ-prism", "value": 0.040, "unit": "s⁻¹"},
      {"measurement": "Kd", "setting": "VCCβ-prism; read-out: Affinity (approximate summary)", "value": "~0.0001", "unit": "mM"},
      {"measurement": "Kd", "setting": "VCCβ-prism; read-out: KD (equilibrium analysis)", "value": 0.000183, "unit": "mM"},
      {"measurement": "Kd", "setting": "VCCβ-prism; read-out: KD (kinetic fit)", "value": 0.000108, "unit": "mM"}
    ]},
    {"molecule": "fetuin", "values": [
      {"measurement": "Inhibition of VCC activity", "setting": "VCC", "value": "inhibited"}
    ]},
    {"molecule": "galactose-α-1,4-galactose [galabiose]", "values": [
      {"measurement": "Average fluorescence of VCC binding to glycan", "setting": "VCCWT", "value": "≤ 100", "unit": "RFUs"}
    ]},
    {"molecule": "galactose-β-1,4(fucose-α-1,3)N-acetyl glucosamine [Lewis X]", "values": [
      {"measurement": "Average fluorescence of VCC binding to glycan", "setting": "VCCWT", "value": "≤ 100", "unit": "RFUs"}
    ]},
    {"molecule": "lacto-N-biose", "values": [
      {"measurement": "Average fluorescence of VCC binding to glycan", "setting": "VCCWT", "value": "≤ 100", "unit": "RFUs"}
    ]}
  ]
}
